Patent US12331040B2 (Karyopharm Therapeutics Inc., priority 2013, dated 2025)
Where two headings read alike, the source gives them in different places.

Tests used:
Experiment in all cases: MTT cell proliferation assay
Type in all cases: cell-based
[1] = test system: 3T3 cells; conditions: Mus musculus, NIH3T3, approximately 64-72 hours incubation
Method in brief: (§1)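 Cytotoxicity was measured by MTT: OD490 of the solubilized formazan after roughly 4 h with MTT reagent, reported as mean percent inhibition relative to the negative control. Test compounds covered eight concentrations between 1 nM and 30 μM, added to 5,000–10,000 cells per well that had attached overnight.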

[2] = test system: MS751 cells; conditions: Homo sapiens, MS751, MS751 cells, approximately 64-72 hours incubation
Method in brief: as §1

[3] = test system: Z138 cells; conditions: Homo sapiens, Z-138, Z138 cells, approximately 64-72 hours incubation
Method in brief: as §1

[4] = read-out: MTT Assay IC50 MS-751
[5] = read-out: MTT Assay IC50, MS-751
[6] = read-out: MTT Assay IC50, Z-138

| Structure (SMILES) | IC50 ([1]; read-out: MTT Assay IC50 3T3) [µM] | IC50 [2, 4] [µM] | IC50 ([3]; read-out: MTT Assay IC50 Z-138) [µM] | IC50 ([1]; read-out: MTT Assay IC50, 3T3) [µM] | IC50 [2, 5] [µM] | IC50 [3, 6] [µM] |
| --- | --- | --- | --- | --- | --- | --- |
| Nc1ccc(/C=C/C(=O)NCc2cc3cc(-c4ccc(C(=O)N5CC[C@H](Cl)C5)cn4)cc(C(F)(F)F)c3o2)cn1 [Compound 618, (S,E)-3-(6-aminopyridin-3-yl)-N-((5-(5-(3-chloropyrrolidine-1-carbonyl)pyridin-2-yl)-7-(trifluoromethyl)benzofuran-2-yl)methyl)acrylamide] | > 10 | 0.1 to 5 | 0.1 to 5 | – | – | – |
| Nc1ccc(/C=C/C(=O)NCc2cc3cc(-c4ccc(C(=O)N5CCC(F)(F)CC5)cc4)cc(-c4cccc(Cl)c4)c3o2)cn1 [Compound 741, (E)-3-(6-aminopyridin-3-yl)-N-((7-(3-chlorophenyl)-5-(4-(4,4-difluoropiperidine-1-carbonyl)phenyl)benzofuran-2-yl)methyl)acrylamide] | – | – | – | 0.1 to 5 | < 0.1 | < 0.1 |
| Nc1ccc(/C=C/C(=O)NCc2cc3cc(-c4ccc(C(=O)N5CCC(F)(F)C5)cc4)cc(C(F)(F)F)c3o2)cn1 [Compound 603, (E)-3-(6-aminopyridin-3-yl)-N-((5-(4-(3,3-difluoropyrrolidine-1-carbonyl)phenyl)-7-(trifluoromethyl)benzofuran-2-yl)methyl)acrylamide] | > 10 | 0.1 to 5 | 0.1 to 5 | – | – | – |
| Nc1ccc(/C=C/C(=O)NCc2cc3cc(-c4ccc(C(=O)N5CCC(F)(F)CC5)cn4)cc(C4CC4)c3o2)cn1 [Compound 659, (E)-3-(6-aminopyridin-3-yl)-N-((7-cyclopropyl-5-(5-(4,4-difluoropiperidine-1-carbonyl)pyridin-2-yl)benzofuran-2-yl)methyl)acrylamide] | – | – | – | > 10 | 0.1 to 5 | 0.1 to 5 |
| O=C(/C=C/c1ccc(C(F)(F)F)nc1)NCc1cc2cc(-c3ccc(C(=O)N4CCOCC4)cc3)cc(Cl)c2o1 [Compound 536, (E)-N-((7-Chloro-5-(4-(morpholine-4-carbonyl)phenyl)benzofuran-2-yl)methyl)-3-(6-(trifluoromethyl)pyridin-3-yl)acrylamide] | > 10 | > 10 | 5 to 10 | – | – | – |
| O=C(/C=C/c1cccnc1)NCc1cc2cc(-c3ccc(C(=O)N4CCC(F)(F)CC4)cn3)cc(-c3cc4ccccc4o3)c2o1 [Compound 721, (E)-N-((5′-(5-(4,4-difluoropiperidine-1-carbonyl)pyridin-2-yl)-[2,7′-bibenzofuran]-2′-yl)methyl)-3-(pyridin-3-yl)acrylamide] | – | – | – | < 0.1 | < 0.1 | < 0.1 |
| Nc1ccc(/C=C/C(=O)NCc2cc3cc(-c4ccc(C(=O)N5CCC(F)(F)CC5)cc4F)cc(-c4cccnc4)c3o2)cn1 [Compound 748, (E)-3-(6-aminopyridin-3-yl)-N-((5-(4-(4,4-difluoropiperidine-1-carbonyl)-2-fluorophenyl)-7-(pyridin-3-yl)benzofuran-2-yl)methyl)acrylamide] | – | – | – | 0.1 to 5 | < 0.1 | < 0.1 |
| COc1cc(-c2ccc(C(=O)N3CCC(F)(F)CC3)cn2)cc2cc(CNC(=O)/C=C/c3ccc(N)nc3)oc12 [Compound 651, (E)-3-(6-aminopyridin-3-yl)-N-((5-(5-(4,4-difluoropiperidine-1-carbonyl)pyridin-2-yl)-7-methoxybenzofuran-2-yl)methyl)acrylamide] | > 10 | < 0.1 | < 0.1 | – | – | – |
| Nc1ccc(/C=C/C(=O)NCc2cc3cc(-c4ccc(C(=O)NC5CCC(F)(F)CC5)cn4)cc(C(F)(F)F)c3o2)cn1 [Compound 629, (E)-6-(2-((3-(6-aminopyridin-3-yl)acrylamido)methyl)-7-(trifluoromethyl)benzofuran-5-yl)-N-(4,4-difluorocyclohexyl)nicotinamide] | > 10 | 0.1 to 5 | 0.1 to 5 | – | – | – |
| Nc1ccc(/C=C/C(=O)NCc2cc3cc(-c4ccc(C(=O)N5CCC(F)(F)C5)cn4)cc(C(F)(F)F)c3o2)cn1 [Compound 612, (E)-3-(6-aminopyridin-3-yl)-N-((5-(5-(3,3-difluoropyrrolidine-1-carbonyl)pyridin-2-yl)-7-(trifluoromethyl)benzofuran-2-yl)methyl)acrylamide] | > 10 | 0.1 to 5 | < 0.1 | – | – | – |
| Nc1ccc(/C=C/C(=O)NCc2cc3cc(-c4ccc(C(=O)N5CCOCC5)cc4)cc(C(F)F)c3o2)cn1 [Compound 557, (E)-3-(6-aminopyridin-3-yl)-N-((7-(difluoromethyl)-5-(4-(morpholine-4-carbonyl)phenyl)benzofuran-2-yl)methyl)acrylamide] | > 10 | 0.1 to 5 | 0.1 to 5 | – | – | – |
| CC1(C)CN(C(=O)c2ccc(-c3cc(C(F)(F)F)c4oc(CNC(=O)/C=C/c5ccc(N)nc5)cc4c3)cc2)CCN1 [Compound 572, (E)-3-(6-aminopyridin-3-yl)-N-((5-(4-(3,3-dimethylpiperazine-1-carbonyl)phenyl)-7-(trifluoromethyl)benzofuran-2-yl)methyl)acrylamide] | 0.1 to 5 | < 0.1 | < 0.1 | – | – | – |
| Nc1ccc(/C=C/C(=O)NCc2cc3cc(-c4ccc(C(=O)N5CCC(F)(F)CC5)cc4)cc(-c4ccc(Cl)cc4F)c3o2)cn1 [Compound 739, (E)-3-(6-aminopyridin-3-yl)-N-((7-(4-chloro-2-fluorophenyl)-5-(4-(4,4-difluoropiperidine-1-carbonyl)phenyl)benzofuran-2-yl)methyl)acrylamide] | – | – | – | > 10 | 0.1 to 5 | 0.1 to 5 |
| Nc1ccc(/C=C/C(=O)NCc2cc3cc(-c4ccc(C(=O)N5CC[C@H](F)C5)cc4)cc(Cl)c3o2)cn1 [Compound 528, (S,E)-3-(6-aminopyridin-3-yl)-N-((7-chloro-5-(4-(3-fluoropyrrolidine-1-carbonyl)phenyl)benzofuran-2-yl)methyl)acrylamide] | > 10 | > 10 | > 10 | – | – | – |
| Nc1ccc(/C=C/C(=O)NCc2cc3cc(-c4ccc(C(=O)N5CCC(F)(F)CC5)cc4)cc(-c4cccc(C(F)(F)F)c4)c3o2)cn1 [Compound 731, (E)-3-(6-aminopyridin-3-yl)-N-((5-(4-(4,4-difluoropiperidine-1-carbonyl)phenyl)-7-(3-(trifluoromethyl)phenyl)benzofuran-2-yl)methyl)acrylamide] | – | – | – | 0.1 to 5 | 0.1 to 5 | < 0.1 |
| Nc1ccc(/C=C/C(=O)NCc2cc3cc(-c4cncc(C(=O)N5CCOCC5)c4)cc(Cl)c3o2)cn1 [Compound 534, (E)-3-(6-aminopyridin-3-yl)-N-((7-chloro-5-(5-(morpholine-4-carbonyl)pyridin-3-yl)benzofuran-2-yl)methyl)acrylamide] | > 10 | 0.1 to 5 | 0.1 to 5 | – | – | – |
| Nc1ccc(/C=C/C(=O)NCc2cc3cc(-c4ccc(C(=O)N5CCC(Cl)CC5)cc4)cc(C(F)(F)F)c3o2)cn1 [Compound 607, (E)-3-(6-aminopyridin-3-yl)-N-((5-(4-(4-chloropiperidine-1-carbonyl)phenyl)-7-(trifluoromethyl)benzofuran-2-yl)methyl)acrylamide] | > 10 | 0.1 to 5 | 0.1 to 5 | – | – | – |
| CC(C)(C)c1cc(-c2ccc(C(=O)N3CCOCC3)cc2)cc2cc(CNC(=O)/C=C/c3ccc(N)nc3)oc12 [Compound 511, (E)-3-(6-aminopyridin-3-yl)-N-((7-tert-butyl-5-(4-(morpholine-4-carbonyl)phenyl)benzofuran-2-yl)methyl)acrylamide] | > 10 | 0.1 to 5 | 0.1 to 5 | – | – | – |
| Nc1ccc(/C=C/C(=O)NCc2cc3cc(-c4ccc(C(=O)N5CCC(F)(F)CC5)cc4)cc(-c4ccc(C(F)(F)F)cc4)c3o2)cn1 [Compound 733, (E)-3-(6-aminopyridin-3-yl)-N-((5-(4-(4,4-difluoropiperidine-1-carbonyl)phenyl)-7-(4-(trifluoromethyl)phenyl)benzofuran-2-yl)methyl)acrylamide] | – | – | – | > 10 | 0.1 to 5 | 0.1 to 5 |
| CC(C)(NC(=O)/C=C/c1ccc(N)nc1)c1cc2cc(-c3ccc(C(=O)N4CCOCC4)cc3)cc(Cl)c2o1 [Compound 512, (E)-3-(6-aminopyridin-3-yl)-N-(2-(7-chloro-5-(4-(morpholine-4-carbonyl)phenyl)benzofuran-2-yl)propan-2-yl)acrylamide] | > 10 | > 10 | > 10 | – | – | – |
| Nc1cc2ccc(/C=C/C(=O)NCc3cc4cc(-c5ccc(C(=O)N6CCC(F)(F)CC6)cn5)cc(C(F)(F)F)c4o3)cc2cn1 [Compound 670, (E)-3-(3-aminoisoquinolin-7-yl)-N-((5-(5-(4,4-difluoropiperidine-1-carbonyl)pyridin-2-yl)-7-(trifluoromethyl)benzofuran-2-yl)methyl)acrylamide] | – | – | – | > 10 | > 10 | > 10 |
| CC1(F)CN(C(=O)c2ccc(-c3cc(C(F)(F)F)c4oc(CNC(=O)/C=C/c5ccc(N)nc5)cc4c3)cc2)C1 [Compound 587, (E)-3-(6-aminopyridin-3-yl)-N-((5-(4-(3-fluoro-3-methylazetidine-1-carbonyl)phenyl)-7-(trifluoromethyl)benzofuran-2-yl)methyl)acrylamide] | > 10 | 0.1 to 5 | 0.1 to 5 | – | – | – |
| Nc1ccc(/C=C/C(=O)NCc2cc3cc(C(F)(F)F)cc(-c4ccc(C(=O)N5CCC(F)(F)CC5)cc4)c3o2)cn1 [Compound 702, (E)-3-(6-aminopyridin-3-yl)-N-((7-(4-(4,4-difluoropiperidine-1-carbonyl)phenyl)-5-(trifluoromethyl)benzofuran-2-yl)methyl)acrylamide] | – | – | – | > 10 | 5 to 10 | 0.1 to 5 |
